“And” between values parts separate entries of the source, which are not always exact repeats. Identical values can stand only once.

In the first assay the target is T1, androgen receptor (rat ventral prostate cytosol) (Rattus norvegicus, UniProt P15207).
T1 construct: from tissue; host or cells: ventral prostate cytosol of castrated male Sprague Dawley or Wistar rats
T1 sequence (P15207 1-902): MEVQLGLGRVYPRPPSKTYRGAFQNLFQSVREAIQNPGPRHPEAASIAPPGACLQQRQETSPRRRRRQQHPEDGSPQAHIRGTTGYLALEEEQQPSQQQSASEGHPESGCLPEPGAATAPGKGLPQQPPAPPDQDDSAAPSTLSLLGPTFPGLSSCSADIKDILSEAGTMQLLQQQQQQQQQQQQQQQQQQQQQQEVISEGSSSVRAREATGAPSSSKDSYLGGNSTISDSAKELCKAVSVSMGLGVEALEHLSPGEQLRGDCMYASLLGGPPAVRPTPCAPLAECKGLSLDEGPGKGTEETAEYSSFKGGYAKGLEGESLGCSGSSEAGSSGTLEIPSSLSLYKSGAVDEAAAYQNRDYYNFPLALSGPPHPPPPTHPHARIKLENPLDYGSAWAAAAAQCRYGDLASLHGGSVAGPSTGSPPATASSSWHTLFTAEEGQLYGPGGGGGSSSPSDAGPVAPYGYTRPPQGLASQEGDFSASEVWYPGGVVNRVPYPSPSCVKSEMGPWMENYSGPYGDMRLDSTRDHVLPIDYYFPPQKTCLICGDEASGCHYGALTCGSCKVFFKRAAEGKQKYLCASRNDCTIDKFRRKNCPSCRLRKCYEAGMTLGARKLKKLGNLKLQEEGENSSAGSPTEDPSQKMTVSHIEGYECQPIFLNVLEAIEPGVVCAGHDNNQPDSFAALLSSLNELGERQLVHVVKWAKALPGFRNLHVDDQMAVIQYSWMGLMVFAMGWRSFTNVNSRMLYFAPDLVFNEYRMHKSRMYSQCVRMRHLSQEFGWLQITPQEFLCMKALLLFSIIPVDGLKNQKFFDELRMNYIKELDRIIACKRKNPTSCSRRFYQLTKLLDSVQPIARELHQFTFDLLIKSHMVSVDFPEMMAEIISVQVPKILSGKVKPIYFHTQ
The assay is described as follows: Androgen Receptor Binding Using Rat Ventral Prostate Cytosol. To be noted: Concentration 1000 nM; read-out: % Inhibition, Androgen Receptor Binding (Rat Cytosol). In a few lines: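 Cytosol from castrated rat ventral prostate was incubated overnight at 4°C with 0.5 nM [3H] tracer and compound in TED buffer (10 mM Tris-HCl pH 7.4, molybdate, EDTA, DTT, glycerol).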
With `CC(O)(CSc1ccc(N)cc1)c1cc2cc(Cl)c(C(F)(F)F)cc2[nH]1` (stereo not shown) [Compound 104], the inhibition at 1 µM was 94.5%.

Still in this assay, the particulars now being: Concentration 3000 nM.
Regarding `CC(O)(CCS(C)(=O)=O)c1cc2cc([N+](=O)[O-])c(C(F)(F)F)cc2[nH]1` (stereo not shown) [Compound 49], the inhibition at 3 µM stood at 48%.
As to `CCSCC(O)c1cc2cc([N+](=O)[O-])c(C(F)(F)F)cc2[nH]1` (stereo not shown) [Compound 158], the inhibition at 3 µM came out at 52%.
The same measure, in the same setting: for `CC(O)(CS(=O)(=O)c1ccc(O)cc1)c1cc2cc(Cl)c(C(F)(F)F)cc2[nH]1` (stereo not shown) [Compound 121] the value was 86%.
Take `CC(O)(CSc1ccc(O)cc1)c1cc2cc(Cl)c(C(F)(F)F)cc2[nH]1` (stereo not shown) [Compound 120]: the inhibition at 3 µM amounted to 130%.
Same read-out and setting: for `COc1ccc(SCC(C)(O)c2cc3cc(Cl)c(C(F)(F)F)cc3[nH]2)cc1` (stereo not shown) [Compound 131] the value was 120%; for `CCSCC(C)(O)c1cc2cc([N+](=O)[O-])c(C(F)(F)F)cc2n1S(C)(=O)=O` (stereo not shown) [Compound 141], -4.5%.
With `COc1ccc(SCC(C)(O)c2cc3cc(Cl)c(C(F)(F)F)cc3n2S(C)(=O)=O)cc1` (racemic) [Compound 130], the “% Inhibition, Androgen Receptor Binding (Rat Cytosol)” value (“% Inhibition” for short) turned out to be 32.55%.
On to `CCC(O)(CS(=O)(=O)CC)c1cc2cc([N+](=O)[O-])c(C(F)(F)F)cc2[nH]1` (stereo not shown) [Compound 176], for which the inhibition at 3 µM is 90%.
Regarding `CC(O)(C[S+]([O-])Cc1ccccc1)c1cc2cc([N+](=O)[O-])c(C(F)(F)F)cc2[nH]1` (mixture of isomers) [Compound 161], the “% Inhibition” value worked out at 39%.
For `CCSCC(O)(CC)c1cc2cc([N+](=O)[O-])c(C(F)(F)F)cc2[nH]1` (stereo not shown) [Compound 169], the inhibition at 3 µM amounted to 62%.
The same measure, in the same setting: the value for `CC(O)(CSC1CCCC1)c1cc2cc([N+](=O)[O-])c(C(F)(F)F)cc2[nH]1` (stereo not shown) [Compound 173] was 32%.
Regarding `CC(O)(CSCc1ccccc1)c1cc2cc([N+](=O)[O-])c(C(F)(F)F)cc2[nH]1` (stereo not shown) [Compound 160], the inhibition at 3 µM turned out to be 65%.
The same measure, in the same setting: the value for `CCCSCC(C)(O)c1cc2cc([N+](=O)[O-])c(C(F)(F)F)cc2[nH]1` (stereo not shown) [Compound 168] was 41%; that for `CSCCC(C)(O)c1cc2cc([N+](=O)[O-])c(C(F)(F)F)cc2[nH]1` (stereo not shown) [Compound 47] was 81%.
Same read-out and setting: the value for `CC(O)(CS(=O)(=O)c1ccc(N)cc1)c1cc2cc(Cl)c(C(F)(F)F)cc2[nH]1` (stereo not shown) [Compound 118] was 80.5%; that for `CSCC(C)(O)c1cc2cc(C#N)c(C(F)(F)F)cc2[nH]1` (stereo not shown) [Compound 136] was 38%.
As for `COc1ccc(S(=O)(=O)CC(C)(O)c2cc3cc(Cl)c(C(F)(F)F)cc3[nH]2)cc1` (racemic) [Compound 129], the “% Inhibition” value is on record as 39.5%.
For `CSCC(C)(O)c1cc2cc(Cl)c(C(F)(F)F)cc2[nH]1` (stereo not shown) [Compound 135], the inhibition at 3 µM amounted to 130%.
On to `CC(O)(CS(C)(=O)=O)c1cc2cc(Cl)c(C(F)(F)F)cc2[nH]1` (stereo not shown) [Compound 138], for which the inhibition at 3 µM was 110%.
Same read-out and setting: the value for `CC(C)SCC(C)(O)c1cc2cc([N+](=O)[O-])c(C(F)(F)F)cc2[nH]1` (stereo not shown) [Compound 164] was 52%; that for `CCS(=O)(=O)C[C@](C)(O)c1cc2cc([N+](=O)[O-])c(C(F)(F)F)cc2[nH]1` [Compound 156, 1-Ethanesulfonyl-2-(5-nitro-6-trifluoromethyl-1H-indol-2-yl)-propan-2-ol] was 66%; that for `CCSCC(C)(O)c1cc2cc([N+](=O)[O-])c(C(F)(F)F)cc2n1C` (racemic) [Compound 165] was 52%.
Still for that read-out and setting: the value for `CC[S+]([O-])C[C@](C)(O)c1cc2cc([N+](=O)[O-])c(C(F)(F)F)cc2[nH]1` (stereo in doubt) [Compound 155, 1-Ethanesulfinyl-2-(5-nitro-6-trifluoromethyl-1H-indol-2-yl)-propan-2-ol] was -6.1%; that for `CC(O)(CSc1ccc([N+](=O)[O-])cc1)c1cc2cc(Cl)c(C(F)(F)F)cc2[nH]1` (stereo not shown) [Compound 122] was 83.5%.
On the same count and under the same terms, the value for `CC(O)(CSCC(F)(F)F)c1cc2cc([N+](=O)[O-])c(C(F)(F)F)cc2[nH]1` (stereo not shown) [Compound 171] was 18%; that for `CC(O)(CSc1ccc(N)cc1)c1cc2cc(Cl)c(C(F)(F)F)cc2[nH]1` (stereo not shown) [Compound 104] was 110%; that for `CC(C)CSCC(C)(O)c1cc2cc([N+](=O)[O-])c(C(F)(F)F)cc2[nH]1` (stereo not shown) [Compound 170] was 80%.
`CCSCC(C)(O)c1cc2cc([N+](=O)[O-])c(C(F)(F)F)cc2[nH]1` (racemic) [Compound 142]: the inhibition at 3 µM was found to be 92%.

The same assay, now with this note: Concentration 3000 nM; 3 µM.
In the case of `CCSCC(C)(O)c1cc2cc([N+](=O)[O-])c(C(F)(F)F)cc2[nH]1` (single isomer, unassigned) [Compound 150], the “% Inhibition” value came to 120%.
Consider `CSCC(C)(O)c1cc2cc([N+](=O)[O-])c(C(F)(F)F)cc2[nH]1` (single isomer, unassigned) [Compound 145], for which the “% Inhibition” value worked out at 58%.
The same measure, in the same setting: the value for `CCS(=O)(=O)CC(C)(O)c1cc2cc([N+](=O)[O-])c(C(F)(F)F)cc2[nH]1` (stereo not shown) [Compound 151] was 100%; that for `CCSCC(C)(O)c1cc2cc([N+](=O)[O-])c(C(F)(F)F)cc2[nH]1` (single isomer, unassigned) [Compound 149] was 94% and 77%; that for `CC(O)(CS(C)(=O)=O)c1cc2cc([N+](=O)[O-])c(C(F)(F)F)cc2[nH]1` (stereo not shown) [Compound 147] was 68%.
On the same count and under the same terms, for `CC(O)(CS(C)(=O)=O)c1cc2cc([N+](=O)[O-])c(C(F)(F)F)cc2[nH]1` (stereo not shown) [Compound 140] the value was 47%; for `CC(O)(CS(C)(=O)=O)c1cc2cc([N+](=O)[O-])c(C(F)(F)F)cc2[nH]1` (stereo not shown) [Compound 148], 94%; for `CCS(=O)(=O)C[C@](C)(O)c1cc2cc([N+](=O)[O-])c(C(F)(F)F)cc2[nH]1` [Compound 156, 1-Ethanesulfonyl-2-(5-nitro-6-trifluoromethyl-1H-indol-2-yl)-propan-2-ol], 67%.
As to `CSCC(C)(O)c1cc2cc([N+](=O)[O-])c(C(F)(F)F)cc2[nH]1` (single isomer, unassigned) [Compound 144], the “% Inhibition” value is reported as 79%.
Same read-out and setting: the value for `CCS(=O)(=O)CC(C)(O)c1cc2cc([N+](=O)[O-])c(C(F)(F)F)cc2[nH]1` (stereo not shown) [Compound 143] was 14%.

The assay is the same for the next values; noted with them: read-out: IC50 (nM), Androgen Receptor Binding (Rat Cytosol).
In the case of `CC(O)(CSCC(F)(F)F)c1cc2cc([N+](=O)[O-])c(C(F)(F)F)cc2[nH]1` (stereo not shown) [Compound 171], the IC50 was found to be 320 nM.

The values above are taken from patent publication US7282507B2, “Indole derivatives as selective androgen receptor modulators (SARMS)” (Janssen Pharmaceutica N.V., priority 2004, dated 2007).
